In one assay the target is MALT1 (Homo sapiens (Human), UniProt Q9UDY8). The experiment in a line: MALT1 enzymatic activity inhibition (fluorescence, Ac-LRSR-AMC substrate). The assay is classed as biochemical. The following applies: recombinant MALT1 1.5 ng/μl, Ac-LRSR-AMC 1 μM. In outline:
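Recombinant human MALT1 (1.5 ng/μl final) preincubated 10 min at rt with compounds in 50 mM HEPES pH 7.2-7.4, 100 mM NaCl, 900 mM sodium citrate, 10 mM DTT; 1 μM Ac-LRSR-AMC then added. AMC fluorescence read at start and after 30 min 37 °C plus 30 min rt; difference gives signal, % inhibition fitted to IC50.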

For assay [1], the system named is IL-2 MALT1-dependent release in Jurkat cells. The experiment in a line: cells. Format: cell-based. The following applies: Homo sapiens; Jurkat cells stimulated with antiCD3/antiCD28 for 24 h; IL-2 ELISA; read-out: EC50, IL-2 MALT1-dependent release inhibition. As for the experimental part: Jurkat cells (ATCC, USA) (100,000 cells/well in a 96 well flat-bottom plate (Greiner, #655061) were cultured in RPMI 1640 supplemented with 10% FBS at 37° C., 5% CO2 in a humidified cell culture incubator for 0.5-1 h. Then 10 μl/well 15× compound (or DMSO) was added in duplicates. Cells were incubated with compound in a humidified cell culture incubator for 0.5-1 h. After the incubation, 10 μl/well of 15× human antiCD3 HIT3a antibody (BioLegend) together with 10 μl/well of 15× human antiCD28 antibody (Invitrogen) were added to stimulate Jurkat cells for 24 h. After 24 h of stimulation, supernatants were collected and IL-2 levels in supernatants were assessed using IL-2 ELISA kit (Vector-Best, Russia).

Where only a bound is given, the exact number is not on record here.

Sequence of MALT1 (Q9UDY8 whole entry): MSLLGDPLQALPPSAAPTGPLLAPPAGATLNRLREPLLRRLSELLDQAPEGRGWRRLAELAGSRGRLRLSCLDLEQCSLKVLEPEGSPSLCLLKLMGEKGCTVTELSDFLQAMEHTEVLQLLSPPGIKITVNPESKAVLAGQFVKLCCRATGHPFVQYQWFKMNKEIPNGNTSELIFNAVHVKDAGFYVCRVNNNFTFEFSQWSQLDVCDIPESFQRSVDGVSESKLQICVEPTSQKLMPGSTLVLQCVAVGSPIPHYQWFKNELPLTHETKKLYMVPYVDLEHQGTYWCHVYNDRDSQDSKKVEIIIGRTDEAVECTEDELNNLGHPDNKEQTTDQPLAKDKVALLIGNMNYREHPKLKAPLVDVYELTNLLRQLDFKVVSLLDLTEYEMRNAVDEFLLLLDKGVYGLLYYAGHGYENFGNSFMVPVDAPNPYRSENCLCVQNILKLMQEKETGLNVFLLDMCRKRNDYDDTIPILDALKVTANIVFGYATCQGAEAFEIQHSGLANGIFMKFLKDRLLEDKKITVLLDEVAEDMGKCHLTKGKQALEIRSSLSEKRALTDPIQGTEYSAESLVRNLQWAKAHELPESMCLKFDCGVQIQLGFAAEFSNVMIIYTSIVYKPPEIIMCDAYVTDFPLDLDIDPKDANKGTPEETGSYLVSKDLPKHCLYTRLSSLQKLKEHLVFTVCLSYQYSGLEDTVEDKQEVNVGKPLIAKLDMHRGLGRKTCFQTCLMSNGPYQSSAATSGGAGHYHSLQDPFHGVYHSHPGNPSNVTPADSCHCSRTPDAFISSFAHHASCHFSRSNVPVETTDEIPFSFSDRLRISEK

One may read the EC50 as the concentration needed to bring the measured effect to its halfway point. For the molecule `O=C(CCOCCOCCN1CCN(c2ccc3c(c2)CN(C2CCC(=O)NC2=O)C3=O)CC1)NCCOc1ncc(Cl)cc1NC(=O)Nc1cnc2ccnn2c1C1CCCC1` (stereo not shown) [Compound 38, N-[2-[[5-chloro-3-[(7-cyclopentylpyrazolo[1,5-a]pyrimidin-6-yl)carbamoylamino]-2-pyridyl]oxy]ethyl]-3-[2-[2-[4-[2-(2,6-dioxo-3-piperidyl)-1-oxo-isoindolin-5-yl]piperazin-1-yl]ethoxy]ethoxy]propanamide], the EC50 at MALT1 is 0.2 to 0.5 µM; in assay [1], 1000 to 5000 nM.

`Cc1cc(NC(=O)Nc2cnc3ccnn3c2C2CCCC2)cnc1N1CCN(c2ccc3c(c2)CN(C2CCC(=O)NC2=O)C3=O)CC1` (stereo not shown) [Compound 54, 1-(7-cyclopentylpyrazolo[1,5-a]pyrimidin-6-yl)-3-[6-[4-[2-(2,6-dioxo-3-piperidyl)-1-oxo-isoindolin-5-yl]piperazin-1-yl]-5-methyl-3-pyridyl]urea]: the EC50 on MALT1 is 1 to 5 µM; in assay [1], over 5000 nM.

For `Cc1cc(NC(=O)Nc2cnc3ccnn3c2C2CCCC2)cnc1-c1noc(CCCCCN2CCN(c3cc4c(cc3F)C(=O)N(C3CCC(=O)NC3=O)C4=O)CC2)n1` (stereo not shown) [Compound 55, 1-(7-cyclopentylpyrazolo[1,5-a]pyrimidin-6-yl)-3-[6-[5-[5-[4-[2-(2,6-dioxo-3-piperidyl)-6-fluoro-1,3-dioxo-isoindolin-5-yl]piperazin-1-yl]pentyl]-1,2,4-oxadiazol-3-yl]-5-methyl-3-pyridyl]urea], the EC50 at MALT1 was at most 0.2 µM; in assay [1], 500 to 1000 nM.

Consider `O=C1CCC(N2Cc3cc(N4CCN(Cc5nc(-c6ncc(NC(=O)Nc7cnc8ccnn8c7C7CCCC7)cc6Cl)no5)CC4)ccc3C2=O)C(=O)N1` (stereo not shown) [Compound 56, 1-[5-chloro-6-[5-[[4-[2-(2,6-dioxo-3-piperidyl)-1-oxo-isoindolin-5-yl]piperazin-1-yl]methyl]-1,2,4-oxadiazol-3-yl]-3-pyridyl]-3-(7-cyclopentylpyrazolo[1,5-a]pyrimidin-6-yl)urea], for which the values for the EC50 (on MALT1; in assay [1]) were at most 0.2 µM and under 500 nM, respectively.

For the molecule `Cc1cc(NC(=O)Nc2cnc3ccnn3c2C2CCCC2)cnc1-c1noc(CCCCN2CCN(c3cc4c(cc3F)C(=O)N(C3CCC(=O)NC3=O)C4=O)CC2)n1` (stereo not shown) [Compound 57, 1-(7-cyclopentylpyrazolo[1,5-a]pyrimidin-6-yl)-3-[6-[5-[4-[4-[2-(2,6-dioxo-3-piperidyl)-6-fluoro-1,3-dioxo-isoindolin-5-yl]piperazin-1-yl]butyl]-1,2,4-oxadiazol-3-yl]-5-methyl-3-pyridyl]urea], the values for the EC50 (at MALT1; in assay [1]) were at most 0.2 µM and 1000 to 5000 nM, respectively.

As to `O=C1CCC(N2Cc3cc(N4CCN(C(=O)CCCCc5nc(-c6ncc(NC(=O)Nc7cnc8ccnn8c7C7CCCC7)cc6Cl)no5)CC4)ccc3C2=O)C(=O)N1` (stereo not shown) [Compound 76, 1-[5-chloro-6-[5-[5-[4-[2-(2,6-dioxo-3-piperidyl)-1-oxo-isoindolin-5-yl]piperazin-1-yl]-5-oxo-pentyl]-1,2,4-oxadiazol-3-yl]-3-pyridyl]-3-(7-cyclopentylpyrazolo[1,5-a]pyrimidin-6-yl)urea], the EC50 on MALT1 was at most 0.2 µM; in assay [1], 500 to 1000 nM.

With `O=C1CCC(N2Cc3cc(N4CCN(CCCCCCc5nc(-c6ncc(NC(=O)Nc7cnc8ccnn8c7C7CCCC7)cc6Cl)no5)CC4)ccc3C2=O)C(=O)N1` (stereo not shown) [Compound 78, 1-[5-chloro-6-[5-[6-[4-[2-(2,6-dioxo-3-piperidyl)-1-oxo-isoindolin-5-yl]piperazin-1-yl]hexyl]-1,2,4-oxadiazol-3-yl]-3-pyridyl]-3-(7-cyclopentylpyrazolo[1,5-a]pyrimidin-6-yl)urea], the concentration for a half-maximal effect (EC50) was at most 0.2 µM at MALT1 and under 500 nM in assay [1].

Turning to `O=C1CCC(N2Cc3cc(N4CCN(CCCCCc5nc(-c6ncc(NC(=O)Nc7cnc8ccnn8c7C7CCCC7)cc6Cl)no5)CC4)ccc3C2=O)C(=O)N1` (stereo not shown) [Compound 79, 1-[5-chloro-6-[5-[5-[4-[2-(2,6-dioxo-3-piperidyl)-1-oxo-isoindolin-5-yl]piperazin-1-yl]pentyl]-1,2,4-oxadiazol-3-yl]-3-pyridyl]-3-(7-cyclopentylpyrazolo[1,5-a]pyrimidin-6-yl)urea], the values for the EC50 (at MALT1; in assay [1]) were at most 0.2 µM and under 500 nM, respectively.

On to `Cc1cc2ncc(NC(=O)Nc3cnc(-c4noc(CCCCCC(=O)N5CCN(c6ccc7c(c6)CN(C6CCC(=O)NC6=O)C7=O)CC5)n4)c(C)c3)c(C3CCCC3)n2n1` (stereo not shown) [Compound 82, 1-(7-cyclopentyl-2-methyl-pyrazolo[1,5-a]pyrimidin-6-yl)-3-[6-[5-[6-[4-[2-(2,6-dioxo-3-piperidyl)-1-oxo-isoindolin-5-yl]piperazin-1-yl]-6-oxo-hexyl]-1,2,4-oxadiazol-3-yl]-5-methyl-3-pyridyl]urea], for which the EC50 was at most 0.2 µM on MALT1 and 1000 to 5000 nM in assay [1].

Consider `Cc1cc2ncc(NC(=O)Nc3cnc(-c4noc(CCCCC(=O)N5CCN(c6ccc7c(c6)CN(C6CCC(=O)NC6=O)C7=O)CC5)n4)c(C)c3)c(C3CCCO3)n2n1` (stereo not shown) [Compound 84, 1-[6-[5-[5-[4-[2-(2,6-dioxo-3-piperidyl)-1-oxo-isoindolin-5-yl]piperazin-1-yl]-5-oxo-pentyl]-1,2,4-oxadiazol-3-yl]-5-methyl-3-pyridyl]-3-(2-methyl-7-tetrahydrofuran-2-yl-pyrazolo[1,5-a]pyrimidin-6-yl)urea], for which the EC50 at MALT1 was at most 0.2 µM; in assay [1], 1000 to 5000 nM.

For `Cc1cc(NC(=O)Nc2cnc3ccnn3c2C(C)C)cnc1-c1noc(CCCCC(=O)N2CCN(c3ccc4c(c3)CN(C3CCC(=O)NC3=O)C4=O)CC2)n1` (stereo not shown) [Compound 86, 1-[6-[5-[5-[4-[2-(2,6-dioxo-3-piperidyl)-1-oxo-isoindolin-5-yl]piperazin-1-yl]-5-oxo-pentyl]-1,2,4-oxadiazol-3-yl]-5-methyl-3-pyridyl]-3-(7-isopropylpyrazolo[1,5-a]pyrimidin-6-yl)urea], the results for the EC50 (on MALT1; in assay [1]) were at most 0.2 µM and 1000 to 5000 nM, respectively.

As for `Cc1cc(NC(=O)Nc2cnc3ccnn3c2C(C)C)cnc1-c1noc(CCCCCN2CCN(c3ccc4c(c3)CN(C3CCC(=O)NC3=O)C4=O)CC2)n1` (stereo not shown) [Compound 87, 1-[6-[5-[5-[4-[2-(2,6-dioxo-3-piperidyl)-1-oxo-isoindolin-5-yl]piperazin-1-yl]pentyl]-1,2,4-oxadiazol-3-yl]-5-methyl-3-pyridyl]-3-(7-isopropylpyrazolo[1,5-a]pyrimidin-6-yl)urea], the figures for the EC50 (on MALT1; in assay [1]) were at most 0.2 µM and under 500 nM, respectively.

In the case of `Cc1cc(NC(=O)Nc2cnc3ccnn3c2C2CCCC2)cnc1-c1noc(CCCCCN2CCN(c3ccc4c(c3)CN(C3CCC(=O)N(COC(=O)C(C)(C)C)C3=O)C4=O)CC2)n1` (stereo not shown) [Compound 88, [3-[5-[4-[5-[3-[5-[(7-cyclopentylpyrazolo[1,5-a]pyrimidin-6-yl)carbamoylamino]-3-methyl-2-pyridyl]-1,2,4-oxadiazol-5-yl]pentyl]piperazin-1-yl]-1-oxo-isoindolin-2-yl]-2,6-dioxo-1-piperidyl]methyl 2,2-dimethylpropanoate], the EC50 at MALT1 was at most 0.2 µM; in assay [1], 1000 to 5000 nM.

For `Cc1cc(NC(=O)Nc2cnc3ccnn3c2C(C)C)cnc1-c1noc(CCCC(=O)N2CCN(c3ccc4c(c3)CN(C3CCC(=O)NC3=O)C4=O)CC2)n1` (stereo not shown) [Compound 89, 1-[6-[5-[4-[4-[2-(2,6-dioxo-3-piperidyl)-1-oxo-isoindolin-5-yl]piperazin-1-yl]-4-oxo-butyl]-1,2,4-oxadiazol-3-yl]-5-methyl-3-pyridyl]-3-(7-isopropylpyrazolo[1,5-a]pyrimidin-6-yl)urea], the EC50 at MALT1 is at most 0.2 µM; in assay [1] it was under 500 nM.

Turning to `Cc1cc(NC(=O)Nc2cnc3ccnn3c2C(C)C)cnc1-c1noc(CCCCCC(=O)N2CCN(c3ccc4c(c3)CN(C3CCC(=O)NC3=O)C4=O)CC2)n1` (stereo not shown) [Compound 91, 1-[6-[5-[6-[4-[2-(2,6-dioxo-3-piperidyl)-1-oxo-isoindolin-5-yl]piperazin-1-yl]-6-oxo-hexyl]-1,2,4-oxadiazol-3-yl]-5-methyl-3-pyridyl]-3-(7-isopropylpyrazolo[1,5-a]pyrimidin-6-yl)urea], the EC50 is at most 0.2 µM on MALT1 and 500 to 1000 nM in assay [1].

Take `Cc1cc(NC(=O)Nc2cnc3ccnn3c2C(C)C)cnc1-c1noc(CCCCCCN2CCN(c3ccc4c(c3)CN(C3CCC(=O)NC3=O)C4=O)CC2)n1` (stereo not shown) [Compound 92, 1-[6-[5-[6-[4-[2-(2,6-dioxo-3-piperidyl)-1-oxo-isoindolin-5-yl]piperazin-1-yl]hexyl]-1,2,4-oxadiazol-3-yl]-5-methyl-3-pyridyl]-3-(7-isopropylpyrazolo[1,5-a]pyrimidin-6-yl)urea]: the EC50 is at most 0.2 µM at MALT1 and under 500 nM in assay [1].

Regarding `CC(C)c1c(NC(=O)Nc2cnc(-c3noc(CCCCCCN4CCN(c5ccc6c(c5)CN(C5CCC(=O)NC5=O)C6=O)CC4)n3)c(Cl)c2)cnc2ccnn12` (stereo not shown) [Compound 93, 1-[5-chloro-6-[5-[6-[4-[2-(2,6-dioxo-3-piperidyl)-1-oxo-isoindolin-5-yl]piperazin-1-yl]hexyl]-1,2,4-oxadiazol-3-yl]-3-pyridyl]-3-(7-isopropylpyrazolo[1,5-a]pyrimidin-6-yl)urea], the figures for the EC50 (at MALT1; in assay [1]) were at most 0.2 µM and under 500 nM, respectively.

The values are drawn from US20250163066A1, “PROTACs of MALT1” (TEGID THERAPEUTICS, INC., priority 2022, published 2025).
